Laboratory results as given in ChEMBL document CHEMBL1143352, “Structural evolutions of salicylaldoximes as selective agonists for estrogen receptor beta” (J Med Chem, 2009).
Several values for one entry are separate records, joined by “and”; a condition that tells them apart may be missing. Identical values can stand only once.

Key:
[1] = biological target: T1, Estrogen receptor beta (Homo sapiens, UniProt Q92731); experiment: Displacement of [3H]estradiol from full-length human estrogen receptor beta by radiometric assay relative to estradiol
T1 sequence (Q92731 whole entry): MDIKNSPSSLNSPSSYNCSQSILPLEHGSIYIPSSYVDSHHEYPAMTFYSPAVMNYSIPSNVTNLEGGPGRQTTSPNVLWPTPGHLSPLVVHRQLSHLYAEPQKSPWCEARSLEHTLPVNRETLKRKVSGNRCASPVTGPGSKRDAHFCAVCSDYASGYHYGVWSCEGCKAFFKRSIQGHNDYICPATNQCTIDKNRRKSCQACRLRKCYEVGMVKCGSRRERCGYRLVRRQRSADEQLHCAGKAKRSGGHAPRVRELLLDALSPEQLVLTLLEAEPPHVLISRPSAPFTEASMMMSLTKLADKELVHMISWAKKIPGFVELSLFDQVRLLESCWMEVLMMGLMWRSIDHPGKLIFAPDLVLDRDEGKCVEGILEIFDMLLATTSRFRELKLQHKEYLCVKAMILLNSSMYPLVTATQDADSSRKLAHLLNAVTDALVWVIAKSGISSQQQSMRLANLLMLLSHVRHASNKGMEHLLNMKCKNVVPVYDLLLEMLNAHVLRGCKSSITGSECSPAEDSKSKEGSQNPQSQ

[2] = species on record: Homo sapiens; experiment: Ratio of relative binding affinity for full-length human estrogen receptor beta to ratio of relative binding affinity for full length human estrogen receptor alpha
[3] = biological target: T2, Estrogen receptor (Homo sapiens, UniProt P03372)
T2 sequence (P03372 whole entry): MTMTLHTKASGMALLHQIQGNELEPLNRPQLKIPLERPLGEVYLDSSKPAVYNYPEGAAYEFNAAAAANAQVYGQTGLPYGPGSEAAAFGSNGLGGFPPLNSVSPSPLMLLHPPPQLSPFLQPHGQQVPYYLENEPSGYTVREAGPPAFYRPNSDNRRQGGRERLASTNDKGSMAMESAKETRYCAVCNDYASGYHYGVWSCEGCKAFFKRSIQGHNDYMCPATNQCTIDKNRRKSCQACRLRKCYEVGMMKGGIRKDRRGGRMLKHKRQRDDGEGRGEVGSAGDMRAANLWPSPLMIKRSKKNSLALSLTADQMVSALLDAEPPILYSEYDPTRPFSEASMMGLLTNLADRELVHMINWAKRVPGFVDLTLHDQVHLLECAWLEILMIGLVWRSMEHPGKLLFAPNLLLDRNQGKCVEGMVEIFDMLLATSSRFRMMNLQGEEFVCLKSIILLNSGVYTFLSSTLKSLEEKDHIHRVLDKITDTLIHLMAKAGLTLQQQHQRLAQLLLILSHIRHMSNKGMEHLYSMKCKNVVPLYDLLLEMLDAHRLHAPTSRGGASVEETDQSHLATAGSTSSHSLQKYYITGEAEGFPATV
Description: Agonist activity at full-length human estrogen receptor alpha expressed in human HEC1 cells assessed as transcriptional activation after 24 hrs by luciferase reporter gene assay

[4] = biological target: T1, Estrogen receptor beta
[5] = biological target: T1, Estrogen receptor beta; experiment: Agonist activity at full-length human estrogen receptor beta expressed in human HEC1 cells assessed as transcriptional activation after 24 hrs by luciferase reporter gene assay relative to estradiol; assay type: functional, cell-based; conditions: HEC-1

Row | SMILES | Activity [1] | Ratio [2] | EC50 [3] | EC50 [4] | Ki [1] | Activity [5]
1 | C/C(=N\O)c1ccc(-c2ccc(O)cc2)c(Cl)c1O | 0.123% | 10 |  |  |  | 
2 | O/N=C/c1ccc(-c2ccc(O)cc2)cc1O | 0.553% | 79 |  |  |  | 
3 | O/N=C/c1cc(-c2ccc(O)c(F)c2)ccc1O | 0.97% | 46 |  |  |  | 
4 | O/N=C/c1cc(-c2ccc(O)cc2)ccc1O | 2.64% | 41 | 17 nM and 10 nM | 10 nM |  | 
5 | C/C(=N\O)c1ccc(-c2ccc(O)c(F)c2)c(Cl)c1O | 0.077% | 13 |  |  |  | 
6 | COc1ccc(-c2ccc(/C(C)=N/O)c(O)c2Cl)cc1 | 0.002% |  |  |  |  | 
7 | O/N=C/c1ccc(-c2ccc(O)c(F)c2)c(Cl)c1O | 7.01% | 62 | 19 nM | 4.8 nM | 7.1 nM | > 85%
8 | COc1ccc(-c2ccc(O)c(/C=N/O)c2)cc1F | 0.013% | 1.9 |  |  |  | 
9 | COc1ccc(-c2ccc(/C=N/O)c(O)c2Cl)cc1F | 0.011% | 1.8 |  |  |  | 
10 | COc1ccc(-c2ccc(O)c(/C=N/O)c2)cc1 | 0.011% | 3.7 |  |  |  | 
11 | COc1ccc(-c2ccc(/C(C)=N/O)c(O)c2Cl)cc1F | 0.002% |  |  |  |  | 
